Reference: ChEMBL document CHEMBL1201862, “PubChem BioAssay data set” (2004)
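Tested at 5 concentrations; 48 h exposure; 96-well plates; endpoints linearly interpolated, else capped at highest concentration. GI50: concentration for 50% inhibition of growth.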 Calls of active or inactive are those of the source. Cut-off read from the data, not from the text of the source: active = GI50 up to about 1.1 µM and inactive = higher.

Columns and labels:
Assay in all cases: NCI anticancer screen, dose series, 48 h
[1] = system: MDA-MB-231
[2] = system: SK-MEL-2
[3] = system: 786-0
[4] = system: A498
[5] = system: OVCAR-3
[6] = system: DU-145
[7] = system: CCRF-CEM
[8] = system: MCF7
[9] = system: TK-10
[10] = system: PC-3
[11] = system: SF-539
[12] = system: HOP-62
[13] = system: COLO 205
[14] = system: MOLT-4
[15] = system: SF-295
[16] = system: HT-29
[17] = system: NCI-H522
[18] = system: NCI/ADR-RES
[19] = system: OVCAR-8
[20] = system: SNB-75

SMILES	GI50 [1]	GI50 [2]	GI50 [3]	GI50 [4]	GI50 [5]	GI50 [6]	GI50 [7]	GI50 [8]	GI50 [9]	GI50 [10]	GI50 [11]	GI50 [12]	GI50 [13]	GI50 [14]	GI50 [15]	GI50 [16]	GI50 [17]	GI50 [18]	GI50 [19]	GI50 [20]
CC1=CC[C@@H]2[C@@H](CC[C@@]2(C)O)C(C)(C)[C@H]1CC[C@@H]1[C@@]2(C)CC[C@@H](O)C(C)(C)O[C@@H]2CC[C@]1(C)O	17.5 µM (inactive)	34 µM (inactive)	18.3 µM (inactive)	15 µM (inactive)	42.8 µM (inactive)	36.3 µM (inactive)	> 10 µM (inactive)	31 µM (inactive)	35.6 µM (inactive)	40.6 µM (inactive)	19.6 µM (inactive)	23.2 µM (inactive)	19.4 µM (inactive)	17.9 µM (inactive)	33.1 µM (inactive)					
Cc1nc2cccc([N+](=O)[O-])c2c(NCCCN(C)C)c1C		> 51.3 µM (inactive)	> 61.5 µM (inactive)	34.8 µM (inactive)	26.6 µM (inactive)	78.2 µM (inactive)	21.3 µM (inactive)	23 µM (inactive)	> 40.9 µM (inactive)	17.8 µM (inactive)	45.4 µM (inactive)	28.9 µM (inactive)	22.3 µM (inactive)	20.5 µM (inactive)	36.6 µM (inactive)	19.9 µM (inactive)	15.2 µM (inactive)	> 100 µM (inactive)	36.1 µM (inactive)	49.7 µM (inactive)
C[C@@H](c1ccccc1)n1c(N)c(C#N)c2ccc([N+](=O)[O-])cc2c1=O	14.9 µM (inactive)	> 100 µM (inactive)	15 µM (inactive)	6.27 µM (inactive)		15.9 µM (inactive)	14.6 µM (inactive)		11.6 µM (inactive)	> 100 µM (inactive)			15 µM (inactive)			14.5 µM (inactive)		7.1 µM (inactive)	12 µM (inactive)	5.51 µM (inactive)
CC1=C(C(N)=O)C(c2ccncc2)C(C#N)C(=O)N1 (stereo unspecified)	> 100 µM (inactive)	> 100 µM (inactive)	> 100 µM (inactive)	> 100 µM (inactive)		> 100 µM (inactive)	> 100 µM (inactive)	> 100 µM (inactive)	> 100 µM (inactive)	> 100 µM (inactive)	> 100 µM (inactive)	> 100 µM (inactive)	> 100 µM (inactive)	> 100 µM (inactive)	> 100 µM (inactive)					> 100 µM (inactive)
CCOC(=O)C(NC(=O)CC)(Nc1ccc(F)cc1F)C(F)(F)F (stereo unspecified)		> 100 µM (inactive)	> 100 µM (inactive)	> 100 µM (inactive)			> 100 µM (inactive)		> 100 µM (inactive)	> 100 µM (inactive)	> 100 µM (inactive)		> 100 µM (inactive)	> 100 µM (inactive)		> 100 µM (inactive)		> 100 µM (inactive)	> 100 µM (inactive)	83 µM (inactive)
C[C@]12CC[C@H](OC(=O)Cc3ccc(N(CCCl)CCCl)cc3)CC1CC[C@@H]1C2CC[C@]2(C)NC(=O)CCC12 (stereo partly specified)		25.5 µM (inactive)	11.5 µM (inactive)	18.9 µM (inactive)	4.04 µM (inactive)		3.54 µM (inactive)		19.9 µM (inactive)		3.5 µM (inactive)	> 10 µM (inactive)	5.4 µM (inactive)	3.08 µM (inactive)	11.8 µM (inactive)	1.87 µM (inactive)	10.7 µM (inactive)		> 10 µM (inactive)	10.1 µM (inactive)
CCCCCCCCCCCCCC(=O)OCC1OC(n2cc(F)c(=O)[nH]c2=O)C(N)C(OC(=O)CCCCCCCCCCCCC)C1O (stereo unspecified)		> 100 µM (inactive)	> 100 µM (inactive)	> 100 µM (inactive)	> 100 µM (inactive)		> 10 µM (inactive)		> 100 µM (inactive)		42.7 µM (inactive)	> 100 µM (inactive)	> 100 µM (inactive)	> 100 µM (inactive)	> 100 µM (inactive)	> 100 µM (inactive)	> 100 µM (inactive)		> 100 µM (inactive)	> 100 µM (inactive)
CCCCOC(=O)C(=O)C(CCC(=O)c1ccc(C)cc1)C(=O)C=C(C)C (stereo unspecified)	> 100 µM (inactive)	> 100 µM (inactive)	> 100 µM (inactive)	> 100 µM (inactive)	> 100 µM (inactive)		> 100 µM (inactive)	> 100 µM (inactive)	> 100 µM (inactive)	> 100 µM (inactive)	> 100 µM (inactive)	> 100 µM (inactive)		> 100 µM (inactive)	> 100 µM (inactive)	> 100 µM (inactive)	> 100 µM (inactive)	> 100 µM (inactive)	> 100 µM (inactive)	> 100 µM (inactive)
C=C(Br)C[N+]12CN3CN(CN(C3)C1)C2	> 100 µM (inactive)	> 100 µM (inactive)	> 100 µM (inactive)	> 100 µM (inactive)	> 100 µM (inactive)	> 100 µM (inactive)	> 100 µM (inactive)			> 100 µM (inactive)	> 100 µM (inactive)	> 100 µM (inactive)	> 100 µM (inactive)	> 100 µM (inactive)	> 100 µM (inactive)	> 100 µM (inactive)	> 100 µM (inactive)	> 100 µM (inactive)	> 100 µM (inactive)	> 100 µM (inactive)
COc1ccc2c(c1)nc1n2C(c2c(F)cccc2Cl)SC1 (stereo unspecified)	3.49 µM (inactive)		5.68 µM (inactive)	5.89 µM (inactive)		1.49 µM (inactive)	3.1 µM (inactive)	3.66 µM (inactive)	> 25.9 µM (inactive)		3.25 µM (inactive)		3.98 µM (inactive)		2.74 µM (inactive)	4.52 µM (inactive)		1.56 µM (inactive)	3.92 µM (inactive)	1.68 µM (inactive)
CNC(=S)NN=C1NCCCN1	> 100 µM (inactive)	> 100 µM (inactive)	> 100 µM (inactive)	> 100 µM (inactive)	> 100 µM (inactive)		> 100 µM (inactive)	> 100 µM (inactive)	> 100 µM (inactive)	> 100 µM (inactive)	> 100 µM (inactive)	> 100 µM (inactive)	> 100 µM (inactive)	> 100 µM (inactive)	> 100 µM (inactive)	> 100 µM (inactive)	> 100 µM (inactive)	> 100 µM (inactive)	> 100 µM (inactive)	> 100 µM (inactive)
CNC(=S)NNc1ncnc2c1c(-c1ccc(Cl)cc1)cn2-c1ccc(C)cc1	7.8 µM (inactive)	13.6 µM (inactive)	9.18 µM (inactive)	20.8 µM (inactive)	11.5 µM (inactive)	14.8 µM (inactive)	0.897 µM (active)		18.8 µM (inactive)	5.45 µM (inactive)	16 µM (inactive)	17.6 µM (inactive)	14.3 µM (inactive)	3.85 µM (inactive)	6.05 µM (inactive)	14.9 µM (inactive)	7.76 µM (inactive)	11.6 µM (inactive)	9.48 µM (inactive)	
CCOC(=O)C(=Cc1ccccc1Cl)C(=O)OCC	1.83 µM (inactive)	2.03 µM (inactive)	1.34 µM (inactive)	2.92 µM (inactive)	1.41 µM (inactive)	1.92 µM (inactive)	0.705 µM (active)			1.79 µM (inactive)	2.1 µM (inactive)	2.13 µM (inactive)	1.57 µM (inactive)	2.52 µM (inactive)	2.47 µM (inactive)	1.43 µM (inactive)	2.03 µM (inactive)	2 µM (inactive)	0.938 µM (active)	0.0174 µM (active)
Cc1ccc(-c2nnc(CCCCCCCCc3nnc(-c4ccc(C)cc4O)n3N)n2N)c(O)c1	> 100 µM (inactive)	> 100 µM (inactive)	85.1 µM (inactive)	> 100 µM (inactive)	> 100 µM (inactive)	> 100 µM (inactive)	> 10 µM (inactive)	> 100 µM (inactive)	> 100 µM (inactive)		> 100 µM (inactive)		> 100 µM (inactive)	33 µM (inactive)	77.1 µM (inactive)		> 100 µM (inactive)	> 100 µM (inactive)	> 100 µM (inactive)	33.9 µM (inactive)
CC(C)=Nn1cnc(C(=N)C#N)c1N		> 100 µM (inactive)	> 100 µM (inactive)		> 100 µM (inactive)	> 100 µM (inactive)	> 100 µM (inactive)	> 100 µM (inactive)	> 100 µM (inactive)	> 100 µM (inactive)	> 100 µM (inactive)	> 100 µM (inactive)	> 100 µM (inactive)	> 100 µM (inactive)	29.4 µM (inactive)	> 100 µM (inactive)	> 100 µM (inactive)	> 100 µM (inactive)	> 100 µM (inactive)	37.1 µM (inactive)
CC(=O)c1sc(Nc2ccc(Cl)c(Cl)c2)nc1C	21 µM (inactive)		> 100 µM (inactive)	32.4 µM (inactive)	29.8 µM (inactive)	> 100 µM (inactive)		37.9 µM (inactive)	> 100 µM (inactive)		> 100 µM (inactive)	69.2 µM (inactive)	> 100 µM (inactive)	14.8 µM (inactive)	35.1 µM (inactive)	76.4 µM (inactive)		> 100 µM (inactive)	> 100 µM (inactive)	54.1 µM (inactive)
COc1ccc(CCc2cc(OC)cc(OC)c2)cc1		11.1 µM (inactive)	47.1 µM (inactive)	17 µM (inactive)	10.9 µM (inactive)		15.6 µM (inactive)		54.2 µM (inactive)		31.6 µM (inactive)	16.7 µM (inactive)	12 µM (inactive)	8.17 µM (inactive)	22.6 µM (inactive)	6.11 µM (inactive)	4.98 µM (inactive)		66.4 µM (inactive)	32.9 µM (inactive)
